Source: PubChem BioAssay AID248 (DTP/NCI, 2004)
Values joined by “and” are separate entries in the source; they are usually repeats but may differ in a detail not shown here. Identical values can stand only once. Inconclusive results and toxic doses are left out. No stated cut-off is given here; in the data, active means T/C of 150% or more; inactive means T/C below 125%.

Test system: L1210 leukemia ip in BDF1 mice, survival T/C
Assay: NCI In Vivo Anticancer Drug Screen. Data for tumor model L1210 Leukemia (intraperitoneal) in B6D2F1 (BDF1) mice
Conditions: endpoint: mean survival time, higher = longer survival
Procedure, shortened: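 Antitumor effect is assessed in tumor-bearing animals. Survival in the compound arm is compared with a vehicle-dosed control arm and expressed as their quotient.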

[1] = dose: 100.0 mg/kg/injection, schedule: Q01DX009 (ip), vehicle: saline
[2] = dose: 200.0 mg/kg/injection, schedule: Q01DX009 (ip), vehicle: saline
[3] = dose: 100.0 mg/kg/injection, schedule: Q01DX009 (ip), vehicle: Klucel (hydroxypropylcellulose) (HPC)
[4] = dose: 100.0 mg/kg/injection, schedule: Q04DX003 (ip), vehicle: Klucel (hydroxypropylcellulose) (HPC)
[5] = dose: 200.0 mg/kg/injection, schedule: Q01DX009 (ip), vehicle: Klucel (hydroxypropylcellulose) (HPC)
[6] = dose: 200.0 mg/kg/injection, schedule: Q04DX003 (ip), vehicle: Klucel (hydroxypropylcellulose) (HPC)
[7] = dose: 400.0 mg/kg/injection, schedule: Q01DX009 (ip), vehicle: Klucel (hydroxypropylcellulose) (HPC)
[8] = dose: 400.0 mg/kg/injection, schedule: Q04DX003 (ip), vehicle: Klucel (hydroxypropylcellulose) (HPC)
[9] = dose: 100.0 mg/kg/injection, schedule: Q01DX001 (ip), vehicle: saline
[10] = dose: 200.0 mg/kg/injection, schedule: Q01DX001 (ip), vehicle: saline
[11] = dose: 400.0 mg/kg/injection, schedule: Q01DX001 (ip), vehicle: saline

Measured: T/C

O=C(O)C(CCl)(CCl)CCl
inactive: dose: 50.0 mg/kg/injection, schedule: Q01DX009 (ip), vehicle: saline 106 % of control | [1] 98 % of control | [2] 95 % of control

Cc1ccc(C(=O)C(c2ccccc2)C(Cl)c2ccccc2)cc1 (stereo not given)
inactive: [3] 98 % of control | [4] 92 % of control | [5] 104 % of control | [6] 98 % of control | [7] 92 % of control | [8] 102 % of control

COC(=O)c1cc(C)cc(Oc2ccccc2[N+](=O)[O-])c1C
inactive: [9] 96 % of control | [10] 98 % of control | [11] 98 % of control

CCOCC(=O)CC1=CCCCC1
inactive: dose: 50.0 mg/kg/injection, schedule: Q01DX009 (ip), vehicle: saline with Tween-80 94 % of control | dose: 100.0 mg/kg/injection, schedule: Q01DX009 (ip), vehicle: saline with Tween-80 102 % of control | dose: 200.0 mg/kg/injection, schedule: Q01DX009 (ip), vehicle: saline with Tween-80 94 % of control

CC1CC(C)(C)OC(C(C)C)O1 (stereo not given)
inactive: dose: 50.0 mg/kg/injection, schedule: Q01DX009 (ip), vehicle: acetone 100 % of control | dose: 75.0 mg/kg/injection, schedule: Q01DX001 (ip), vehicle: acetone 95 % of control | dose: 100.0 mg/kg/injection, schedule: Q01DX009 (ip), vehicle: acetone 97 % of control | dose: 150.0 mg/kg/injection, schedule: Q01DX001 (ip), vehicle: acetone 92 % of control | dose: 200.0 mg/kg/injection, schedule: Q01DX009 (ip), vehicle: acetone 94 % of control | dose: 300.0 mg/kg/injection, schedule: Q01DX001 (ip), vehicle: acetone 87 % of control

CCN(CC)C(=S)SC(=S)N(CC)CC
inactive: dose: 100.0 mg/kg/injection, schedule: Q04DX002 (ip), vehicle: gum acacia 103 % of control | dose: 200.0 mg/kg/injection, schedule: Q04DX002 (ip), vehicle: gum acacia 103 % of control | dose: 400.0 mg/kg/injection, schedule: Q04DX002 (ip), vehicle: gum acacia 89 % of control

FC(F)(F)c1cc(Br)c2ccc3ncccc3c2n1
inactive: dose: 100.0 mg/kg/injection, schedule: Q04DX002 (ip), vehicle: saline with Tween-80 111 % of control | dose: 200.0 mg/kg/injection, schedule: Q04DX002 (ip), vehicle: saline with Tween-80 107 % of control | dose: 400.0 mg/kg/injection, schedule: Q04DX002 (ip), vehicle: saline with Tween-80 96 % of control

O=c1[nH]cc(C(F)(F)F)c(=O)[nH]1
inactive: dose: 4.0 mg/kg/injection, schedule: Q01DX Z (oral), vehicle: methylcellulose (MC) 106 % of control | dose: 8.0 mg/kg/injection, schedule: Q01DX Z (oral), vehicle: methylcellulose (MC) 102 % of control | dose: 12.0 mg/kg/injection, schedule: Q01DX Z (oral), vehicle: methylcellulose (MC) 103 % of control and 91 % of control | dose: 16.0 mg/kg/injection, schedule: Q01DX Z (oral), vehicle: methylcellulose (MC) 90 % of control | dose: 50.0 mg/kg/injection, schedule: Q01DX Z (ip), vehicle: saline 103 % of control | dose: 100.0 mg/kg/injection, schedule: Q01DX Z (ip), vehicle: saline 107 % of control | dose: 200.0 mg/kg/injection, schedule: Q01DX Z (ip), vehicle: saline 116 % of control and 123 % of control | dose: 300.0 mg/kg/injection, schedule: Q01DX Z (ip), vehicle: saline 124 % of control | dose: 400.0 mg/kg/injection, schedule: Q01DX Z (ip), vehicle: saline 98 % of control | dose: 500.0 mg/kg/injection, schedule: Q01DX Z (ip), vehicle: saline 117 % of control | dose: 500.0 mg/kg/injection, schedule: Q01DX Z (oral), vehicle: methylcellulose (MC) 111 % of control | dose: 1000.0 mg/kg/injection, schedule: Q01DX Z (oral), vehicle: methylcellulose (MC) 93 % of control | dose: 1500.0 mg/kg/injection, schedule: Q01DX Z (oral), vehicle: methylcellulose (MC) 94 % of control | dose: 2000.0 mg/kg/injection, schedule: Q01DX Z (oral), vehicle: methylcellulose (MC) 88 % of control

Cc1cc(C)c2[nH]c(=O)c(C)c(C)c2c1
inactive: dose: 100.0 mg/kg/injection, schedule: Q01DX001 (ip), vehicle: other 104 % of control | dose: 200.0 mg/kg/injection, schedule: Q01DX001 (ip), vehicle: other 95 % of control | dose: 400.0 mg/kg/injection, schedule: Q01DX001 (ip), vehicle: other 95 % of control

Cc1cc(C)cc(C(O)(C(=O)O)c2ccccc2)c1 (stereo not given)
inactive: dose: 75.0 mg/kg/injection, schedule: Q01DX001 (ip), vehicle: other 103 % of control | dose: 150.0 mg/kg/injection, schedule: Q01DX001 (ip), vehicle: other 103 % of control | dose: 300.0 mg/kg/injection, schedule: Q01DX001 (ip), vehicle: other 106 % of control

COc1ccc(/C=C2\N=C(c3ccc(Cl)cc3)OC2=O)cc1Br
inactive: dose: 100.0 mg/kg/injection, schedule: Q04DX002 (ip), vehicle: saline 101 % of control | dose: 200.0 mg/kg/injection, schedule: Q04DX002 (ip), vehicle: saline 93 % of control | dose: 400.0 mg/kg/injection, schedule: Q04DX002 (ip), vehicle: saline 108 % of control

NC(CSC(c1ccccc1)(c1ccccc1)c1ccc(C(=O)O)cc1)C(=O)O (stereo not given)
inactive: dose: 12.5 mg/kg/injection, schedule: Q01DX009 (ip), vehicle: water 106 % of control | dose: 25.0 mg/kg/injection, schedule: Q01DX009 (ip), vehicle: water 102 % of control and 103 % of control | dose: 50.0 mg/kg/injection, schedule: Q01DX009 (ip), vehicle: water 103 % of control and 100 % of control | dose: 100.0 mg/kg/injection, schedule: Q01DX009 (ip), vehicle: water 101 % of control and 108 % of control | dose: 200.0 mg/kg/injection, schedule: Q01DX009 (ip), vehicle: water 102 % of control | dose: 400.0 mg/kg/injection, schedule: Q01DX009 (ip), vehicle: water 97 % of control and 102 % of control

N#Cc1ccc(Cl)c2c1C(=O)c1ccccc1C2=O
inactive: [9] 98 % of control | [1] 100 % of control | [10] 98 % of control | [2] 94 % of control | [11] 95 % of control | dose: 400.0 mg/kg/injection, schedule: Q01DX009 (ip), vehicle: saline 92 % of control

O=C1c2ccccc2C(F)(F)c2ccccc21
inactive: [3] 110 % of control | [5] 100 % of control | [7] 101 % of control

CCCCCCCCCCCCCNCCCCCCCCCCCCC
inactive: dose: 100.0 mg/kg/injection, schedule: Q04DX003 (ip), vehicle: saline 96 % of control | dose: 200.0 mg/kg/injection, schedule: Q04DX003 (ip), vehicle: saline 92 % of control | dose: 400.0 mg/kg/injection, schedule: Q04DX003 (ip), vehicle: saline 96 % of control

COc1ccc(C2=C(Br)C(=O)C(c3ccc(OC)cc3)=C(Br)C2=O)cc1
inactive: [4] 94 % of control | [6] 96 % of control | [8] 98 % of control

Oc1cccc2cccnc12.[Al]
inactive: dose: 10.0 mg/kg/injection, schedule: Q01DX Z (ip), vehicle: carboxymethylcellulose (CMC) 93 % of control | dose: 20.0 mg/kg/injection, schedule: Q01DX Z (ip), vehicle: carboxymethylcellulose (CMC) 97 % of control | dose: 40.0 mg/kg/injection, schedule: Q01DX Z (ip), vehicle: carboxymethylcellulose (CMC) 93 % of control | dose: 50.0 mg/kg/injection, schedule: Q01DX009 (ip), vehicle: Klucel (hydroxypropylcellulose) (HPC) 94 % of control | dose: 50.0 mg/kg/injection, schedule: Q04DX003 (ip), vehicle: Klucel (hydroxypropylcellulose) (HPC) 101 % of control | [3] 100 % of control | [4] 102 % of control | [5] 96 % of control | [6] 101 % of control
